# Read-outs that look alike come from different tables or passages of the source.
# Assays:
# [1] = target: T1, CYP11A1 (Homo sapiens, UniProt P05108); test: CYP11A1 assay based on mitochondrial fraction of V79-4 cells; format: biochemical; conditions: 10 µM, 20S-hydroxycholesterol 2 µM, 4 h, qualitative, assay of low sensitivity
# T1 construct: host or cells: V79-4 cells (Chinese hamster), transient transfection, mitochondrial fraction
# T1 sequence (P05108 40-521): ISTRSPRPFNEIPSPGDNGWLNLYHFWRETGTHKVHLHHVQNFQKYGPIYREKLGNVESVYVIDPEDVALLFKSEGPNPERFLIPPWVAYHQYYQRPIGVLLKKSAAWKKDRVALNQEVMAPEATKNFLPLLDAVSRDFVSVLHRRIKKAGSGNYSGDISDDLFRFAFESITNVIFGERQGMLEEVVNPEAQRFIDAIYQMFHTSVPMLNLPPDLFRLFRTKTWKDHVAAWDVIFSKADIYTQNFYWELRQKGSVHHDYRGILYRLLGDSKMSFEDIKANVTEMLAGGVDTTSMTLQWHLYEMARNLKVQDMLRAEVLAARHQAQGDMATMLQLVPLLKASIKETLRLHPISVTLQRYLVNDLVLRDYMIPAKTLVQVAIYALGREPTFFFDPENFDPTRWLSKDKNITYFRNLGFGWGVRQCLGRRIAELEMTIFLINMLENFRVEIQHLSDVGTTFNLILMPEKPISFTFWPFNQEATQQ
# Description: Mitochondria were prepared as described previously with modifications ([Frezza et al., 2007]). Briefly, V79-4 cells (3,000,000) were seeded 4 h prior to transfection with 4 µg of expression plasmid for CYP11A1 and adrenodoxin (GeneScript Piscataway, USA, clone IDs OHu18602D and OHu55929D) using polyethylemine (PEI) in a PEI/DNA ratio of 3:1 (w/w). At 4 h post-transfection, medium was changed and cells were incubated overnight. Cells were collected in ice cold phosphate buffered saline (PBS) and centrifuged at 600 × g for 10 min at 4 °C. The pellet was resuspended in ice cold isolation buffer (10 mM Tris/MOPS, pH 7.4, 1 mM EGTA/Tris, pH 7.4, 200 mM sucrose in water) and transferred to a glass potter, followed by 35 S using a 2 cm^3 glass Teflon pestle. The homogenate was centrifuged for 10 min at 600 × g and 4 °C. The supernatant was collected and centrifuged for 10 min at 7000 × g at 4 °C. The pellet was washed and resuspended in 200 μL ice cold isolation buffer. After centrifugation, the pellet containing the mitochondrial fraction was resuspended in 30 μL reaction buffer (25 mM HEPES pH 7.4, 0.1 mM DTT, 0.1 mM EDTA, 4 mM MgCl2) and the protein content was determined by the BCA assay according to the manufacturer (Pierce BCA protein assay kit, Thermo Scientific, Rockford, USA). Bovine serum albumin provided with the kit was used as reference protein and absorbance was measured using a BioTek Cytation5 Imaging Reader (Agilent BioTek).
# For the CYP11A1 activity assay, 500 µg/mL of freshly prepared mitochondrial fraction were pre-incubated on ice with reaction buffer, 1 mM NADPH and either vehicle (0.1% DMSO), 10 µM of the positive control ketoconazole ([Mast et al., 2013]) or the triazole antifungals for 10 min. The reaction was started by adding the substrate 20S-hydroxycholesterol at a final concentration of 2 µM in a reaction volume of 50 µL. After 4 h of incubation at 37 °C, the reaction was stopped by adding 50 µL methanol and shock-freezing in liquid nitrogen. Samples were stored at −80 °C until sample preparation for pregnenolone detection using an ELISA kit (Alpco, Salem, USA). Sample preparation included evaporation of samples to dryness, reconstitution in 6 µL methanol and 1:25 (v:v) dilution in water. The ELISA was performed according to the manufacturer and absorbance was measured using a BioTek Citation5 imaging reader.
# [2] = target: T2, CYP17A1 17α-hydroxylase (Homo sapiens, UniProt P05093); test: CYP17A1 17α-hydroxylase activity assay, microsomes of transfected COS-1 cells; format: biochemical; conditions: cell-free
# T2 construct: expressed in transfected cells; host or cells: COS-1 cells, transient transfection, microsomal fraction
# T2 sequence (P05093 1-508): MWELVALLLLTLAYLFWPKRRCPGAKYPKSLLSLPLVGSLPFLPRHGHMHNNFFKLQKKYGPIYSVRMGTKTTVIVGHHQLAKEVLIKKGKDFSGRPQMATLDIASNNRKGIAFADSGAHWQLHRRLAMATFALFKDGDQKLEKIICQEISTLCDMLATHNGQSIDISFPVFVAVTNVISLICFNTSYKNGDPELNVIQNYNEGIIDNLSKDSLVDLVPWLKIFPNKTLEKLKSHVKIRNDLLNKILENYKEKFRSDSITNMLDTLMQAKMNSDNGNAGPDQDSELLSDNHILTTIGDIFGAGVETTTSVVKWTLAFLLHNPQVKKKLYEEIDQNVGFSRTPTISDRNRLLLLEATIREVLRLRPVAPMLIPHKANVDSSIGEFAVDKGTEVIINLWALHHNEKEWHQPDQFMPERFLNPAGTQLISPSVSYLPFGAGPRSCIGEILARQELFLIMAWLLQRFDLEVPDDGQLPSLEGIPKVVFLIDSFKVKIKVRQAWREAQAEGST
# Description: (§1) Microsomes were prepared from COS-1 cells transiently transfected with plasmids for either CYP17A1 and POR for CYP17A1-hydroxylase assay (human CYP17A1 was available in our own plasmid collection after cloning into pcDNA3, POR was ordered from Genescript, Piscataway, USA, clone ID OHu25584C), CYP17A1, POR and cytochrome b5 for CYP17A1 17,20-lyase assay (cytochrome b5 was from Genescript, clone ID OHu09495D), POR and CYP21A2 (Genescript, CYP21A2 clone ID OHu18602D), or 3β-HSD2 (Genescript, clone ID OHu14034D). Transfection was performed using PEI and equal amounts of required plasmids with a total DNA amount of 8 µg per transfection of 3,000,000 cells. After overnight incubation, cells were washed with prewarmed PBS before adding ice-cold PBS. Cells were collected and centrifuged at 600 × g for 4 min at 4 °C, washed with ice cold PBS and centrifuged again. The pellet was resuspended in a resuspension buffer (20 mM Tris, pH 7.5, 50 mM KCl, 2 mM MgCl2, 0.25 M sucrose). Cells were disrupted with 30 S by a glass potter (2 cm^3) as described above. The homogenate was centrifuged for 20 min at 12,000 × g and 4 °C. Microsomes were pelleted by ultracentrifugation at 100,000 × g for 1 h at 4 °C. The pellet was resuspended in reaction buffer and the protein concentration determined using the Pierce Protein BCA kit as described above.
# (§2) Microsomal protein (250 µg/mL) was preincubated with 1 mM NADPH and the compound of interest in reaction buffer for 10 min. The reaction was started by adding progesterone spiked with a radioactive tracer (final activity 0.025 mCi) to a final concentration of 500 nM. After 10 min of incubation at 37 °C the reaction was stopped by adding enzyme substrate and product at a final concentration of 1 mM in methanol, followed by shock-freezing in liquid nitrogen. Steroids were separated by thin layer chromatography on SIL G-25 UV254 TLC plates (Macherey-Nagel, Düren, Germany) using chloroform and ethyl acetate (1:4; v:v). Bands were excised and radiolabeled steroids analyzed by scintillation counting using […] Plus cocktail (Zinsser Analytic, Frankfurt am Main, Germany) and a β-counter (Packard, Connecticut, USA). Relative conversion was calculated based on total counts.
# [3] = target: T3, CYP17A1 17,20-lyase (Homo sapiens, UniProt P05093); test: CYP17A1 17,20-lyase activity assay, microsomes of transfected COS-1 cells; format: biochemical; conditions: for IC50: cell-free, 17α-hydroxypregnenolone 500 nM, 1 h
# T3 construct: expressed in transfected cells; host or cells: COS-1 cells, transient transfection, microsomal fraction
# T3 sequence (P05093 1-508): T2 sequence (P05093 1-508)
# Description: as §1
# Microsomes, 250 µg/mL, expressing CYP17A1, POR and cytochrome b5 were incubated in reaction buffer for 10 min with 1 mM NADPH and the azole antifungals. The reaction was started by adding 500 nM 17α-hydroxypregnenolone in a total reaction volume of 50 µL. After 1 h of incubation at 37 °C, the reaction was stopped adding 50 µL methanol. Samples were evaporated to dryness, reconstituted in 6 µL methanol, diluted 1:25 in water and the DHEA concentration was quantified using an ELISA kit (DEH3344, Demeditec, Kiel, Germany). Absorbance was measured using a BioTek Citation5 imaging reader.
# [4] = target: T4, CYP21A2 (Homo sapiens, UniProt P08686); test: CYP21A2 activity assay, microsomes of transfected COS-1 cells; format: biochemical; conditions: cell-free, progesterone 500 nM, 10 min
# T4 construct: host or cells: COS-1 cells, transient transfection, microsomal fraction
# T4 sequence (P08686 1-495): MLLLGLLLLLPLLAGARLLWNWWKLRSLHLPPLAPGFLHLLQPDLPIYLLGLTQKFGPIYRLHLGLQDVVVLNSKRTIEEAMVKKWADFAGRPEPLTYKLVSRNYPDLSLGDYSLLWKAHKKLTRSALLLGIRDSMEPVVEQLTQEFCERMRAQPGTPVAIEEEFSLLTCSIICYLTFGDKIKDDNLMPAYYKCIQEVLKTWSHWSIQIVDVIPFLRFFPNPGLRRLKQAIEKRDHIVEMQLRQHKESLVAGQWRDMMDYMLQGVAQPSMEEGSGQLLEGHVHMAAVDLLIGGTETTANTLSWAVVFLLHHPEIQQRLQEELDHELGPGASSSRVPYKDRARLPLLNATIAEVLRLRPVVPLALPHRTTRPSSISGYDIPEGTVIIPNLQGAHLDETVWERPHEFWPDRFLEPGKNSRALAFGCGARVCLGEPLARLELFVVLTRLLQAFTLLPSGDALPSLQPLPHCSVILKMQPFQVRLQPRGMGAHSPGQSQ
# Description: as §1, §2
# [5] = system: H295R cells; test: Steroidogenesis assay in forskolin-stimulated H295R cells, UHPLC-MS/MS; format: cell-based, human; conditions: forskolin-stimulated, 48 h, in words
# Description: Briefly, 200,000 cells/mL between passages 5 and 10 were seeded in a 24-well plate. After 24 h, the medium was replaced by fresh medium containing reference or test compounds. […] As a time zero control, complete medium was incubated without cells. After 48 h of incubation, the cell culture supernatant was collected and stored at −20 °C until steroid quantification was performed by ultra-high liquid chromatography tandem mass spectrometry (UHPLC-MS/MS). All experiments were performed three times independently in technical duplicates.
# Using water, the sample volume was adapted to 1 mL. Samples were extracted using Oasis HLB 3 cc SPE cartridge (30 mg, 30 μm particle size, Waters, Massachusetts, USA). Columns were preconditioned with 1 mL ethyl acetate and water prior to application of samples. After sample loading, columns were washed three times with 1 mL methanol (10% v/v) and water before samples were eluted applying 0.75 mL ethyl acetate twice. Eluates were evaporated to dryness and reconstituted in 50 µL methanol. Samples were applied to a reverse phase column (Waters Acquity UPLC BEH C18, 1.7 μm, 2.1 mm × 150 mm). […] Applied mobile phases consisted of water, acetonitrile and formic acid (95/5/0.1; v/v/v and 5/95/0.1; v/v/v). For data analysis, Hunter software version B.09.00 (Agilent Technologies) was used. Lower limit of detection (LOD), lower limit of quantification (LLOQ), and upper limit of quantification (ULOQ) are shown in Table 1.
# [6] = system: 11β-HSD2; parameters: method as in Beck et al., 2017, Beck et al., 2020a; conditions: in words, ref Beck et al., 2017, Beck et al., 2020a; cited from earlier work
# [7] = parameters: method as in earlier work; conditions: ref Zhang et al., 2018, Märtson et al., 2019, Vena et al., 2020, Risum et al., 2021, cited from earlier work
# [8] = progesterone 500 nM, 10 min, read-out: IC50 CYP17A1 17α-hydroxylase mean
smiles,measurement,setting,value
CC(=O)N1CCN(c2ccc(OCC3COC(Cn4ccnc4)(c4ccc(Cl)cc4Cl)O3)cc2)CC1 (centres unmarked) [ketoconazole],inhibition of CYP11A1 activity,[1],weak inhibitory effect
"CC(O)C(C)n1ncn(-c2ccc(N3CCN(c4ccc(OCC5COC(Cn6cncn6)(c6ccc(Cl)cc6Cl)O5)cc4)CC3)cc2)c1=O (centres unmarked) [OH-itraconazole, Hydroxyitraconazole]",inhibition of CYP17A1 17α-hydroxylase,[2]; in words,very weakly
same,IC50,[2]; [8],7160 nM
same,IC50,[3],2480 nM
same,"lower inhibitory potency against 17,20-lyase than posaconazole",[3]; relative to posaconazole,10 times
same,IC50,[4],> 10000 nM
CCCN(CCOc1c(Cl)cc(Cl)cc1Cl)C(=O)n1ccnc1 [prochloraz],IC50,[2]; [8],90 nM
same,IC50,[2]; read-out: IC50 against 17α-hydroxylase,94.5 nM
same,IC50,[3],40 nM
same,IC50,[4],210 nM
same,effect on the steroid profile,[5],significant accumulation of progesterone
C[C@@H](c1ncncc1F)[C@](O)(Cn1cncn1)c1ccc(F)cc1F [voriconazole],IC50,[2]; [8],> 10000 nM
same,IC50,[3],> 10000 nM
same,IC50,[4],> 10000 nM
same,effect on the steroid profile,[5],only minor effects on the steroid profile
same,inhibition of 11β-HSD2,[6],inactive
OC(Cn1cncn1)(Cn1cncn1)c1ccc(F)cc1F [fluconazole],IC50,[2]; [8],> 10000 nM
same,IC50,[3],> 10000 nM
same,IC50,[4],> 10000 nM
same,effect on the steroid profile,[5],only minor effects on the steroid profile
same,inhibition of 11β-HSD2,[6],inactive
same,serum trough concentration,[7]; molar value in brackets,~3 µM
same,serum trough concentration,[7],11 µg/mL

# Source: paper PMC10458698, “Characterization of the interferences of systemic azole antifungal drugs with adrenal steroid biosynthesis using H295R cells and enzyme activity assays” (Current Research in Toxicology, 2023)
